Laboratory results reported in ChEMBL document CHEMBL1201862, “PubChem BioAssay data set” (2004).
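Following 48 hours of exposure in 96-well plates, responses at five concentrations were used to interpolate endpoints linearly. At the GI50, growth is halved.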 Activity calls are given as the source filed them. No stated cut-off is given here; in the data, active = GI50 up to about 1.1 µM and inactive = higher.

Assays:
Test in all cases: inhibition of tumour cell growth, NCI panel, 48 h
OVCAR-4 = system: OVCAR-4
OVCAR-3 = system: OVCAR-3
DU-145 = system: DU-145
HCT-116 = system: HCT-116
CAKI-1 = system: CAKI-1
MDA-MB-231 = system: MDA-MB-231
MCF7 = system: MCF7
SF-268 = system: SF-268
IGROV-1 = system: IGROV-1
HCT-15 = system: HCT-15
SW-620 = system: SW-620
OVCAR-8 = system: OVCAR-8
OVCAR-5 = system: OVCAR-5
K562 = system: K562
EKVX = system: EKVX
RPMI-8226 = system: RPMI-8226
PC-3 = system: PC-3
BT-549 = system: BT-549
NCI/ADR-RES = system: NCI/ADR-RES
U-251 = system: U-251
SK-MEL-5 = system: SK-MEL-5
HOP-62 = system: HOP-62
CCRF-CEM = system: CCRF-CEM
M14 = system: M14
MDA-N = system: MDA-N
HT-29 = system: HT-29
SK-MEL-28 = system: SK-MEL-28
SF-539 = system: SF-539
LOX IMVI = system: LOX IMVI
UACC-62 = system: UACC-62
NCI-H23 = system: NCI-H23
SR = system: SR
HL-60 = system: HL-60
SK-OV-3 = system: SK-OV-3
A549 = system: A549
SNB-19 = system: SNB-19
UO-31 = system: UO-31
COLO 205 = system: COLO 205
UACC-257 = system: UACC-257
HCC 2998 = system: HCC 2998
T47D = system: T47D
NCI-H460 = system: NCI-H460
Hs-578T = system: Hs-578T
SNB-75 = system: SNB-75
A498 = system: A498
RXF 393 = system: RXF 393
MDA-MB-435 = system: MDA-MB-435
786-0 = system: 786-0
KM12 = system: KM12
SK-MEL-2 = system: SK-MEL-2
ACHN = system: ACHN
MOLT-4 = system: MOLT-4
SF-295 = system: SF-295
NCI-H522 = system: NCI-H522
NCI-H226 = system: NCI-H226
Malme-3M = system: Malme-3M
SN12C = system: SN12C
HOP-92 = system: HOP-92
TK-10 = system: TK-10

In the case of `N#CC(C#N)=CNC(=S)c1ccncc1`, the GI50 (OVCAR-4) is reported as > 100 µM (inactive), the GI50 (OVCAR-3) is reported as 0.117 µM (active) and the GI50 (DU-145) is reported as > 100 µM (inactive). The GI50 (HCT-116) was 53.6 µM (inactive), the GI50 (CAKI-1) was 46.7 µM (inactive) and the GI50 (MDA-MB-231) was > 100 µM (inactive). For the same molecule, the GI50 (MCF7) was 76.9 µM (inactive), the GI50 (SF-268) was 61.1 µM (inactive) and the GI50 (IGROV-1) was 69.5 µM (inactive). The GI50 (HCT-15) was 37.4 µM, the GI50 (SW-620) was 64.9 µM (inactive) and the GI50 (OVCAR-8) was > 100 µM (inactive). For the same molecule, the GI50 (OVCAR-5) was > 100 µM (inactive), the GI50 (K562) was 39.1 µM (inactive) and the GI50 (EKVX) was > 100 µM (inactive). For the same molecule, the GI50 (RPMI-8226) was 36.9 µM (inactive), the GI50 (PC-3) was > 100 µM (inactive) and the GI50 (BT-549) was 11.2 µM (inactive). The GI50 (NCI/ADR-RES) was > 100 µM (inactive), the GI50 (U-251) was > 100 µM (inactive) and the GI50 (SK-MEL-5) was 48.4 µM (inactive). The GI50 (HOP-62) was > 100 µM (inactive), the GI50 (CCRF-CEM) was 34.5 µM (inactive) and the GI50 (M14) was > 100 µM (inactive). For the same molecule, the GI50 (MDA-N) was > 100 µM (inactive), the GI50 (HT-29) was 46.9 µM (inactive) and the GI50 (SK-MEL-28) was > 100 µM (inactive). For the same molecule, the GI50 (SF-539) was 23.1 µM (inactive), the GI50 (LOX IMVI) was > 100 µM (inactive) and the GI50 (UACC-62) was > 100 µM (inactive). For the same molecule, the GI50 (NCI-H23) was > 100 µM (inactive), the GI50 (SR) was 18.7 µM (inactive) and the GI50 (HL-60) was 48.1 µM (inactive). The GI50 (SK-OV-3) was > 100 µM (inactive), the GI50 (A549) was > 100 µM (inactive) and the GI50 (SNB-19) was 41.6 µM (inactive). The GI50 (UO-31) was 5.6 µM (inactive), the GI50 (COLO 205) was 45.1 µM (inactive) and the GI50 (UACC-257) was > 100 µM (inactive). The GI50 (HCC 2998) was 59.8 µM (inactive), the GI50 (T47D) was > 100 µM (inactive) and the GI50 (NCI-H460) was > 100 µM (inactive). The GI50 (Hs-578T) was 57.4 µM (inactive), the GI50 (SNB-75) was 35.4 µM (inactive) and the GI50 (A498) was 92.9 µM (inactive). For the same molecule, the GI50 (RXF 393) was > 100 µM (inactive), the GI50 (MDA-MB-435) was > 100 µM (inactive) and the GI50 (786-0) was > 100 µM (inactive). For the same molecule, the GI50 (KM12) was > 100 µM (inactive), the GI50 (SK-MEL-2) was > 100 µM (inactive) and the GI50 (ACHN) was 34.8 µM (inactive). The GI50 (MOLT-4) was 64.3 µM (inactive), the GI50 (SF-295) was > 100 µM (inactive) and the GI50 (NCI-H522) was 21.9 µM (inactive). The GI50 (NCI-H226) was > 100 µM (inactive), the GI50 (Malme-3M) was > 100 µM (inactive) and the GI50 (SN12C) was 87.5 µM (inactive).
With `Cc1cccc2c(N)c3cccc(C(=O)NCCNCCN)c3nc12` the GI50 (OVCAR-4) was 2.67 µM (inactive), the GI50 (OVCAR-3) was 21.9 µM (inactive) and the GI50 (DU-145) was 2.62 µM (inactive). The GI50 (HCT-116) was 2.52 µM (inactive), the GI50 (CAKI-1) was 3.8 µM (inactive) and the GI50 (MDA-MB-231) was 1.96 µM (inactive). For the same molecule, the GI50 (MCF7) was 0.369 µM (active), the GI50 (SF-268) was 0.0698 µM (active) and the GI50 (IGROV-1) was 5.01 µM (inactive). The GI50 (HOP-92) was 7.6 µM (inactive), the GI50 (HCT-15) was 12.4 µM and the GI50 (SW-620) was 8.02 µM (inactive). For the same molecule, the GI50 (OVCAR-8) was 0.995 µM (active), the GI50 (OVCAR-5) was 22.8 µM (inactive) and the GI50 (K562) was 8.28 µM (inactive). The GI50 (EKVX) was 10.4 µM (inactive), the GI50 (RPMI-8226) was 9.55 µM (inactive) and the GI50 (PC-3) was 10.8 µM (inactive). For the same molecule, the GI50 (BT-549) was 14.6 µM (inactive), the GI50 (NCI/ADR-RES) was 27.9 µM (inactive) and the GI50 (U-251) was 0.736 µM (active). The GI50 (SK-MEL-5) was 5.11 µM (inactive), the GI50 (HOP-62) was 0.533 µM (active) and the GI50 (CCRF-CEM) was 0.448 µM (active). The GI50 (M14) was 28.7 µM (inactive), the GI50 (MDA-N) was 16 µM (inactive) and the GI50 (HT-29) was 2.9 µM (inactive). The GI50 (SK-MEL-28) was 15.8 µM (inactive), the GI50 (SF-539) was 1.61 µM (inactive) and the GI50 (LOX IMVI) was 5.28 µM (inactive). For the same molecule, the GI50 (UACC-62) was 7.4 µM (inactive), the GI50 (NCI-H23) was 0.598 µM (active) and the GI50 (SR) was 8.09 µM (inactive). The GI50 (HL-60) was 8.83 µM (inactive), the GI50 (SK-OV-3) was 26.9 µM (inactive) and the GI50 (A549) was 0.203 µM (active). The GI50 (SNB-19) was 1.16 µM (inactive), the GI50 (UO-31) was 12.3 µM (inactive) and the GI50 (COLO 205) was 2.71 µM (inactive). For the same molecule, the GI50 (UACC-257) was 26.2 µM (inactive), the GI50 (HCC 2998) was 6.79 µM (inactive) and the GI50 (T47D) was 7.36 µM (inactive). For the same molecule, the GI50 (NCI-H460) was 0.558 µM (active), the GI50 (Hs-578T) was 1.24 µM (inactive) and the GI50 (SNB-75) was 0.631 µM (active). For the same molecule, the GI50 (A498) was 23.7 µM (inactive), the GI50 (RXF 393) was 12.6 µM (inactive) and the GI50 (MDA-MB-435) was 18.7 µM (inactive). For the same molecule, the GI50 (786-0) was 0.0644 µM (active), the GI50 (KM12) was 3.89 µM (inactive) and the GI50 (SK-MEL-2) was 13 µM (inactive). The GI50 (ACHN) was 3.8 µM (inactive), the GI50 (MOLT-4) was 0.0649 µM (active) and the GI50 (SF-295) was 3.68 µM (inactive). For the same molecule, the GI50 (NCI-H522) was 0.0826 µM (active), the GI50 (Malme-3M) was 15.4 µM (inactive) and the GI50 (TK-10) was 22.3 µM (inactive). For the same molecule, the GI50 (SN12C) was 0.179 µM (active).
In the case of `CCOC(=O)c1c(N2CCOCC2)[nH]c(=O)c(C(c2ccco2)c2c(O)c(C(=O)OCC)c(N3CCOCC3)[nH]c2=O)c1O`, the GI50 (OVCAR-4) is reported as > 100 µM (inactive), the GI50 (OVCAR-3) is reported as > 100 µM (inactive) and the GI50 (DU-145) is reported as > 100 µM (inactive). The GI50 (HCT-116) was > 100 µM (inactive), the GI50 (CAKI-1) was > 100 µM (inactive) and the GI50 (MDA-MB-231) was > 100 µM (inactive). The GI50 (MCF7) was > 100 µM (inactive), the GI50 (SF-268) was > 100 µM (inactive) and the GI50 (HOP-92) was 80.9 µM (inactive). For the same molecule, the GI50 (HCT-15) was greater than 100 µM, the GI50 (SW-620) was > 100 µM (inactive) and the GI50 (OVCAR-8) was > 100 µM (inactive). The GI50 (OVCAR-5) was > 100 µM (inactive), the GI50 (K562) was > 100 µM (inactive) and the GI50 (EKVX) was > 100 µM (inactive). The GI50 (RPMI-8226) was > 100 µM (inactive), the GI50 (PC-3) was > 100 µM (inactive) and the GI50 (BT-549) was > 100 µM (inactive). For the same molecule, the GI50 (NCI/ADR-RES) was > 100 µM (inactive), the GI50 (U-251) was > 100 µM (inactive) and the GI50 (SK-MEL-5) was > 100 µM (inactive). The GI50 (HOP-62) was > 100 µM (inactive), the GI50 (CCRF-CEM) was > 100 µM (inactive) and the GI50 (M14) was > 100 µM (inactive). For the same molecule, the GI50 (MDA-N) was > 100 µM (inactive), the GI50 (HT-29) was > 100 µM (inactive) and the GI50 (SK-MEL-28) was > 100 µM (inactive). For the same molecule, the GI50 (SF-539) was > 100 µM (inactive), the GI50 (LOX IMVI) was > 100 µM (inactive) and the GI50 (UACC-62) was > 100 µM (inactive). For the same molecule, the GI50 (NCI-H23) was > 100 µM (inactive), the GI50 (SR) was > 100 µM (inactive) and the GI50 (SK-OV-3) was > 100 µM (inactive). For the same molecule, the GI50 (A549) was > 100 µM (inactive), the GI50 (SNB-19) was > 100 µM (inactive) and the GI50 (UO-31) was > 100 µM (inactive). The GI50 (COLO 205) was > 100 µM (inactive), the GI50 (UACC-257) was > 100 µM (inactive) and the GI50 (HCC 2998) was > 100 µM (inactive). The GI50 (T47D) was > 100 µM (inactive), the GI50 (NCI-H460) was > 100 µM (inactive) and the GI50 (Hs-578T) was > 100 µM (inactive). The GI50 (SNB-75) was > 100 µM (inactive), the GI50 (A498) was > 100 µM (inactive) and the GI50 (RXF 393) was > 100 µM (inactive). For the same molecule, the GI50 (MDA-MB-435) was > 100 µM (inactive), the GI50 (786-0) was > 100 µM (inactive) and the GI50 (KM12) was > 100 µM (inactive). The GI50 (SK-MEL-2) was > 100 µM (inactive), the GI50 (ACHN) was > 100 µM (inactive) and the GI50 (MOLT-4) was > 100 µM (inactive). For the same molecule, the GI50 (SF-295) was > 100 µM (inactive), the GI50 (NCI-H522) was > 100 µM (inactive) and the GI50 (NCI-H226) was > 100 µM (inactive). For the same molecule, the GI50 (Malme-3M) was > 100 µM (inactive), the GI50 (TK-10) was > 100 µM (inactive) and the GI50 (SN12C) was > 100 µM (inactive).
